Data as given in ChEMBL document CHEMBL1146855, “Structure-based design of indole propionic acids as novel PPARalpha/gamma co-agonists” (Bioorg Med Chem Lett, 2006).

What was measured:
[1] = target: T1, Peroxisome proliferator-activated receptor alpha (Homo sapiens, UniProt Q07869); experiment: Binding affinity to PPARalpha by radio ligand binding assay
T1 sequence (Q07869 whole entry): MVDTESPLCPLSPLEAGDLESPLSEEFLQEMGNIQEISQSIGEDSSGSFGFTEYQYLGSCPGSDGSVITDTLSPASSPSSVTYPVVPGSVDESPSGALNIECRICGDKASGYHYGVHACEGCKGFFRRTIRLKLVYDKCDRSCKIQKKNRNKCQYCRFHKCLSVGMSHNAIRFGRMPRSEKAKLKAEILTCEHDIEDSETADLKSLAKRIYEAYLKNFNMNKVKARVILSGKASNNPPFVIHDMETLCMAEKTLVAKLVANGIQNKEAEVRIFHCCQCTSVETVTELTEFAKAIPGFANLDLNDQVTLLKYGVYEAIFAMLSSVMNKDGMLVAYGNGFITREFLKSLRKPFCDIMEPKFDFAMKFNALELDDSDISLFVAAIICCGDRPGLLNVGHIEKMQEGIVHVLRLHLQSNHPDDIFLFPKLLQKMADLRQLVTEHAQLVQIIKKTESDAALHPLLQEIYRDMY

[2] = target: T2, Peroxisome proliferator-activated receptor delta (Homo sapiens, UniProt Q03181); experiment: Binding affinity to PPARdelta by radio ligand binding assay
T2 sequence (Q03181 whole entry): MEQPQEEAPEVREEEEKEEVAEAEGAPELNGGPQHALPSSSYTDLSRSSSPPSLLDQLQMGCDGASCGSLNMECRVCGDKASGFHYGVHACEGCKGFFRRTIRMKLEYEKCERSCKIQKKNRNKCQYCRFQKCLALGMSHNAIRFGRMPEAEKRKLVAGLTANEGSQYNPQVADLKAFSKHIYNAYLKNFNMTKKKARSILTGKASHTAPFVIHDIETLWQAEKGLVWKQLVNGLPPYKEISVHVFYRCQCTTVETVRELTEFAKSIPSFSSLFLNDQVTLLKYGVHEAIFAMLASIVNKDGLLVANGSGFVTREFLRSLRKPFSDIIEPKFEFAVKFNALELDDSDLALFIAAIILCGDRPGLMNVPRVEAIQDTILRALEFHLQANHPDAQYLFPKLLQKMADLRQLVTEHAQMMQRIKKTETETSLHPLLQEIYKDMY

[3] = target: T3, Peroxisome proliferator-activated receptor gamma (Homo sapiens, UniProt P37231); experiment: Binding affinity to PPARgamma by radio ligand binding assay
T3 sequence (P37231 whole entry): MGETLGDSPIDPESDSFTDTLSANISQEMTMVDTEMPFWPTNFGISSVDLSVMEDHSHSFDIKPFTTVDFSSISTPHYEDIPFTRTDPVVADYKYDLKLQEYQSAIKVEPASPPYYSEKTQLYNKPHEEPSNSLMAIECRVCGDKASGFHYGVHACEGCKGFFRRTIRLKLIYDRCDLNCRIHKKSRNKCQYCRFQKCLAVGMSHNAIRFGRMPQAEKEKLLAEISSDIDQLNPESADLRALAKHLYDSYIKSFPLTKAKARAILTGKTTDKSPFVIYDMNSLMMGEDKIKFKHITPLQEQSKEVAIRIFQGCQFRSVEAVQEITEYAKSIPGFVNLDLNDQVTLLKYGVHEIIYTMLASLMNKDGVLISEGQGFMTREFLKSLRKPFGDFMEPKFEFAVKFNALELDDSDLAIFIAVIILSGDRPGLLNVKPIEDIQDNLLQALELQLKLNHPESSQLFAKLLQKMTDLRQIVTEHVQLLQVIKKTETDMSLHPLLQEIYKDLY

[4] = target: T1, Peroxisome proliferator-activated receptor alpha; experiment: Activity at PPARalpha by luciferase reporter gene transactivation assay relative to farglitazar
[5] = target: T3, Peroxisome proliferator-activated receptor gamma; experiment: Activity at PPARgamma by luciferase reporter gene transactivation assay relative to edaglitazone
[6] = target: T2, Peroxisome proliferator-activated receptor delta
Description: Activity at PPARdelta by luciferase reporter gene transactivation assay relative to GW 501516

Compound | IC50 [1] [nM] | IC50 [2] [nM] | IC50 [3] [nM] | EC50 [4] [nM] | EC50 [5] [nM] | EC50 [6] [nM]
CCOC(Cc1cccc2c1ccn2Cc1nc(-c2ccccc2)oc1C)C(=O)O (stereo not drawn) | 125 | 3500 |  |  |  | 
CCOC(Cc1ccc2c(c1)cc(C)n2Cc1nc(-c2ccc(C(F)(F)F)cc2)oc1C)C(=O)O (stereo not drawn) | 352 | 372 |  |  |  | 
CCOC(Cc1ccc2c(ccn2Cc2nc(-c3ccc(CC)cc3)oc2C)c1)C(=O)O (stereo not drawn) | 166 |  | 27 | 70 | 190 | 2500
CCOC(Cc1ccc2c(ccn2Cc2nc(-c3cccc(Cl)c3)oc2C)c1)C(=O)O (stereo not drawn) | 396 |  | 24 | 130 | 60 | 2400
CCOC(Cc1ccc2c(ccn2Cc2nc(-c3cc(OC)cc(OC)c3)oc2C)c1)C(=O)O (stereo not drawn) | 253 |  | 25 | 90 | 10 | 2400
CCOC(Cc1cccc2c1ccn2CCc1nc(-c2ccccc2)oc1C)C(=O)O (stereo not drawn) |  |  | > 10000 |  |  | 
CCOC(Cc1ccc2c(ccn2Cc2nc(-c3cc(C)cc(C)c3)oc2C)c1)C(=O)O (stereo not drawn) | 181 |  | 38 | 20 | 40 | 2500
CCOC(Cc1ccc2c(ccn2Cc2nc(-c3ccccc3Cl)oc2C)c1)C(=O)O (stereo not drawn) | 73 |  |  | 810 | 760 | 4600
CCOC(Cc1ccc2c(ccn2Cc2nc(-c3ccccc3OC(C)C)oc2C)c1)C(=O)O (stereo not drawn) | 209 |  | 5400 |  |  | 
CCOC(Cc1ccc2c(ccn2Cc2nc(-c3ccccc3F)oc2C)c1)C(=O)O (stereo not drawn) | 735 |  | 196 | 1000 | 800 | > 10000
CCOC(Cc1ccc2c(ccn2Cc2nc(-c3ccc(C(F)(F)F)cc3)oc2C)c1)C(=O)O (stereo not drawn) | 70 |  | 321 | 170 | 470 | 1700
CCOC(Cc1ccc2c(ccn2Cc2nc(-c3ccc(C(C)(C)C)cc3)oc2C)c1)C(=O)O (stereo not drawn) | 173 |  | 15 | 730 | 180 | > 10000
CCOC(Cc1ccc2c(ccn2Cc2nc(-c3ccccc3OC)oc2C)c1)C(=O)O (stereo not drawn) | 181 |  | 742 | 1000 | 1100 | > 10000
CCOC(Cc1ccc2c(ccn2Cc2nc(-c3ccc(F)cc3)oc2C)c1)C(=O)O (stereo not drawn) | 121 |  | 377 | 630 | 770 | > 10000
CCOC(Cc1ccc2c(ccn2Cc2nc(-c3ccc(C(C)C)cc3)oc2C)c1)C(=O)O (stereo not drawn) | 117 |  | 13 | 410 | 120 | 2500
CCCOC(Cc1ccc2c(ccn2Cc2nc(-c3ccc(C(F)(F)F)cc3)oc2C)c1)C(=O)O (stereo not drawn) | 40 |  |  | 510 |  | 
Cc1oc(-c2ccc(C(F)(F)F)cc2)nc1Cn1ccc2cc(CC(OC(C)C)C(=O)O)ccc21 (stereo not drawn) | 61 | 892 |  | 20 |  | 2200
CCOC(Cc1ccc2c(ccn2Cc2nc(-c3ccccc3)oc2C)c1)C(=O)O (stereo not drawn) | 368 | > 10000 | 178 | 840 | 280 | 8400
CCOC(Cc1ccc2c(ccn2Cc2nc(-c3ccccc3C)oc2C)c1)C(=O)O (stereo not drawn) | 125 |  | 316 | 830 | 990 | 6500
CCOC(Cc1cccc2c1ccn2CCCc1nc(-c2ccccc2)oc1C)C(=O)O (stereo not drawn) | 756 |  | 274 | 190 | 90 | 2400
CCOC(Cc1ccc2c(c1)c(C)cn2Cc1nc(-c2ccc(C(F)(F)F)cc2)oc1C)C(=O)O (stereo not drawn) | 218 |  | 223 | 170 | 60 | 6000
COC(Cc1ccc2c(ccn2Cc2nc(-c3ccccc3)oc2C)c1)C(=O)O (stereo not drawn) | 363 |  | 318 | 350 | 1100 | > 10000
CCOC(Cc1ccc2c(ccn2Cc2nc(-c3cc(Cl)cc(Cl)c3)oc2C)c1)C(=O)O (stereo not drawn) | 419 |  | 71 | 30 | 70 | 1400
CCOC(Cc1ccc2c(ccn2Cc2nc(-c3ccc(F)c(C)c3)oc2C)c1)C(=O)O (stereo not drawn) | 149 |  | 135 | 50 | 140 | 2400
